Experimental data published in ChEMBL document CHEMBL3792337, “Cardiac Glycosides from the Seeds of Thevetia peruviana” (J Nat Prod, 2016).

Columns and labels:
[1] = Cytotoxicity against human LO2 cells after 48 hrs by MTT assay; format: cell-based; settings: L02, 48 h
MGC-803 = test: Induction of apoptosis in human MGC803 cells after 24 hrs by annexin V-FITC/propidium iodide staining-based flow cytometry; format: functional, cell-based
SW1990 = test: Cytotoxicity against human SW1990 cells after 48 hrs by MTT assay; format: functional, cell-based; settings: SW1990, 48 h
[2] = Cytotoxicity against human MGC803 cells after 48 hrs by MTT assay; format: functional, cell-based; settings: MGC-803, 48 h
[3] = Cytotoxicity against human P15 cells after 48 hrs by MTT assay; format: functional, cell-based; settings: P15, 48 h

CO[C@H]1[C@H](O)[C@H](O[C@H]2CC[C@@]3(C)[C@H](CC[C@@H]4[C@@H]3CC[C@]3(C)[C@@H](C5=CC(=O)OC5)CC[C@]43O)C2)O[C@@H](C)[C@@H]1O [NERIIFOLIN]
IC50 [1]: > 10000 nM
Activity (MGC-803): Dose-dependent effect
IC50 (SW1990): 30 nM
IC50 [2]: 20 nM
IC50 [3]: 60 nM

CO[C@H]1[C@H](O)[C@H](O[C@H]2CC[C@@]3(C)[C@@H](CC[C@@H]4[C@@H]3CC[C@]3(C)[C@@H](C5=CC(=O)OC5)CC[C@]43O)C2)O[C@@H](C)[C@@H]1O [THEVEFOLIN]
IC50 [1]: > 10000 nM
Activity (MGC-803): Dose-dependent effect
IC50 (SW1990): 30 nM
IC50 [2]: 370 nM
IC50 [3]: 10 nM

CO[C@H]1[C@H](O)[C@H](O[C@H]2CC[C@H]3[C@H](CC[C@@H]4[C@@H]3CC[C@]3(C)[C@@H](C5=CC(=O)OC5)CC[C@]43O)C2)O[C@@H](C)[C@@H]1O
IC50 [1]: > 10000 nM
Activity (MGC-803): Dose-dependent effect
IC50 (SW1990): 530 nM
IC50 [2]: 570 nM
IC50 [3]: 210 nM

CO[C@H]1[C@H](O)[C@H](O[C@H]2CC[C@@]3(C)[C@@H](CC[C@@H]4[C@@H]3CC[C@]3(C)[C@@H](C5=CC(=O)OC5)CC[C@]43O)C2)O[C@@H](C)[C@@H]1O[C@H]1O[C@@H](CO[C@@H]2O[C@H](CO)[C@@H](O)[C@H](O)[C@H]2O)[C@H](O)[C@@H](O)[C@@H]1O
IC50 [1]: > 10000 nM
IC50 (SW1990): > 10000 nM
IC50 [2]: 8320 nM
IC50 [3]: 10000 nM

CO[C@@H]1[C@@H](O)[C@@H](O[C@@H]2CC[C@]3(CO)[C@@H](CC[C@H]4[C@H]3CC[C@@]3(C)[C@H](C5=CC(=O)OC5)CC[C@@]43O)C2)O[C@H](C)[C@H]1O[C@@H]1O[C@H](CO)[C@@H](O)[C@H](O)[C@H]1O
IC50 [1]: > 10000 nM
IC50 (SW1990): 130 nM
IC50 [2]: 320 nM
IC50 [3]: 120 nM

CO[C@H]1[C@H](O)[C@H](O[C@H]2CC[C@@]3(CO)[C@H](CC[C@@H]4[C@@H]3CC[C@]3(C)[C@@H](C5=CC(=O)OC5)CC[C@]43O)C2)O[C@@H](C)[C@@H]1O
IC50 [1]: > 10000 nM
Activity (MGC-803): Dose-dependent effect
IC50 (SW1990): 20 nM
IC50 [2]: 40 nM
IC50 [3]: 80 nM

CO[C@H]1[C@H](O)[C@H](O[C@H]2CC[C@@]3(C(=O)O)[C@H](CC[C@@H]4[C@@H]3CC[C@]3(C)[C@@H](C5=CC(=O)OC5)CC[C@]43O)C2)O[C@@H](C)[C@@H]1O
IC50 [1]: > 10000 nM
IC50 (SW1990): > 10000 nM
IC50 [2]: 3930 nM
IC50 [3]: > 10000 nM
